SMILES strings stand for the structures. Where two headings read alike, the source gives them in different places.

In one test the test system is AGE formation. Put plainly: AGE formation inhibitory activity (glucose-mediated protein glycation of BSA, spectrofluorometric). It counts as biochemical. The note with it: n = 3, 60°C, 24 h, read-out: AGE Inhibitory Activity (IC50, Mean ± SD). As for the experimental part:
The compound PS10 with 4-methylpiperazine had better anti-glycating effects compared to the unsubstituted piperazine compound (PS6). […]
The synthesized compounds were assayed by the spectrofluorometric method for inhibition of glucose-mediated protein glycation. All the compounds and aminoguanidine (positive control) with different concentrations were evaluated in triplicate. […]
In vitro advanced glycation end-product (AGEs) formation inhibitory activity The assay for the ability of the synthesized compounds to inhibit the glucose-mediated protein glycation and the development of ﬂuorescent AGEs was performed. Different concentrations of various compounds were prepared by dissolving in DMSO. Anti-glycation assay was performed according to the methods reported by Matsuura and colleagues with slight modification. In all experiments, about 500 µl of Bovine serum albumin (1mg/ml final concentration) was incubated with 400 µl of glucose (500 mM) in the presence of 100 µl of test compounds, aminoguanidine or PBS as control buffer at different concentrations, The reaction was allowed to proceed at 60°C for 24hrs and thereafter reaction was stopped by adding 10 µl of 100% (w/v) trichloroacetic acid (TCA). Then the mixture was kept at 4°C for 10 min before subjected to centrifugation at 15,000 rpm. The precipitate was redissolved in 1ml alkaline PBS (pH10) and immediately quantified for relative amount of glycated BSA based on fluorescence intensity by spectrofluorometer LS-55 (Perkin Elmer) at 370 nm (excitation) and 440 nm (emission). Aminoguanidine was used as a positive control. Percentage inhibition was calculated. All experiments were performed in triplicate.

Test [1] in a line: Free radical scavenging activity (DPPH, Blois method). To be noted: n = 3, read-out: Radical Scavenging Activity (EC50, Mean ± SD). As for the experimental part:
The activity was tested using the spectrophotometric Blois method.
Radical scavenging activity (DPPH Method)
The stable 1, 1-diphenyl-2-picryl hydrazyl radical (DPPH) was used for determination of free radical-scavenging activity of the test compounds. The 0.1 mM solution of DPPH in methanol (39.4 mg in 1000 ml) was freshly prepared. Different concentrations of test compounds were added with an equal volume to methanol solution of DPPH. After 30 min at room temperature, the absorbance was recorded at 517 nm. Ascorbic acid was used as standard. IC50 values denote the concentration of sample, which is required to scavenge 50% of DPPH free radicals. IC50 value was determined from the plotted graph of scavenging activity against the different concentrations of test compounds. Ascorbic acid was applied as positive drug (Blois, 1958).

In test [2] the target is T1, brain AChE (rat cortex homogenate) (Rattus norvegicus, UniProt P37136).
T1 construct: homogenate was used as the resource of AChE; from tissue; host or cells: rat cortex homogenate
T1 sequence (P37136 32-614): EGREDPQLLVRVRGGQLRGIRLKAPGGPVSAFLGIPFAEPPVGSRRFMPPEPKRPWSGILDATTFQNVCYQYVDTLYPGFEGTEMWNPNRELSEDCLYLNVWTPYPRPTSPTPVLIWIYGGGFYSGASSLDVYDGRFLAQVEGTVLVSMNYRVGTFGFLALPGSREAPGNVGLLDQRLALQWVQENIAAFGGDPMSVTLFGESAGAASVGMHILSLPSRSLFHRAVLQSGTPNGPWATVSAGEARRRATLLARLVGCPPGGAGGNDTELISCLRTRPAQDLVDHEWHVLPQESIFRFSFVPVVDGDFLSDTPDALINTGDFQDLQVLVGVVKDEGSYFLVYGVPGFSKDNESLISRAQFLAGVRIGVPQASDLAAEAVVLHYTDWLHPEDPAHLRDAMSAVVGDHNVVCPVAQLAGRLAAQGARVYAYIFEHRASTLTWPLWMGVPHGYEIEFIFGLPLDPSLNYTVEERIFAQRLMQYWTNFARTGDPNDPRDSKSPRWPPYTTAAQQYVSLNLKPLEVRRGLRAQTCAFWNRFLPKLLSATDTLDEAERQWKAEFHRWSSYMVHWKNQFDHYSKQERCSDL
Put plainly: biochemical. As for the experimental part: The ability of target compounds PS(1–10) to inhibit AChE was evaluated by the slightly modified Ellman’s method. The objective of attaching different amines to the 1,3-diphenylprop-2-enone skeleton via an ethoxy spacer was to enhance the interaction of the designed synthesized chalcones with both the PAS and CAS of AChE.
The inhibitory potential of synthesized compounds was evaluated for brain AChE by the widely used Ellman et al. process. The method involved using spectroscopic investigation at 450 nm. All the compounds with different concentrations were evaluated in triplicate including donepezil (standard AChE inhibitor).
In vitro inhibition of AChE
The inhibitory potency of target compounds on AChE was determined using spectroscopic […]
homogenate was used as the resource of AChE. For assay of AChE activity, a reaction mixture containing 100μl acetylthiocholine iodide 0.075M/L, 100μl sodium phosphate buffer (0.1M/L, pH 7.4), 20μl homogenate or serum and different concentrations of test compounds 20μl was incubated at 37° C for 15 min. The reaction was terminated by adding 50μl 3% sodium lauryl sulfate, then, 50μl, 0.2% of 5,5’–dithio-bis- (2-nitrobenzoic acid) (DTNB, 10 mg DTNB in 100 mL of Sorenson phosphate buffer, pH 8.0) was added to produce the yellow anion of 5-thio-2-nitro-benzoic acid. Assays were carried out with a blank containing all components except AChE in order to account for non-enzymatic reaction. The values of IC 50 were calculated by UV spectroscopy from the absorbance changes at 450 nm. A positive control of donepezil was used in the same range of concentrations. Each concentration was analyzed in triplicate. Data from concentration–inhibition experiments of the inhibitors were calculated by nonlinear regression analysis, using the GraphPad Prism 5 program. […]

The test system of test [3] is STZ-induced cognitive impairment in rats. Kind of test: Morris Water Maze in STZ-induced dementia. It counts as in vivo, Wistar rats. To be noted: STZ i.c.v. 3 mg/kg rats; PS10 2, 5, 10 mg/kg p.o., day 9 to 22. As for the experimental part:
The STZ model (i.c.v., 3 mg/kg) is commonly used to study AD in animals. The intracerebroventricular injection of STZ, at two sub-diabetogenic doses, induces a range of symptoms including impaired cognition, metabolic and molecular changes, and neuropathological symptoms in rodents which are often found in AD subjects. […] The ROS produced can cause damage to the myelin sheath and acetyl coenzyme-A in the hippocampus. As a result, there is an increase in AChE activity, leading to behavioral disturbances, as in Alzheimer’s disease. Thus, this model is frequently used for AD interventions.
MWM is the most commonly used method to measure learning and spatial memory in rats. MWM utilizes the natural swimming ability of rats. As a result, during the retrieval phase, there is no induced stress that could affect the results. The MWM model is commonly used to test drugs that enhance memory and provide neuroprotection. Thus, it has been used to understand the effect of PS10 on the memory of animals with induced cognitive impairment by means of restoring the ELT.
To induce cognitive impairment in rats, solutions of Streptozotocin (STZ, 3 mg/kg) in artificial cerebro-spinal fluid (ACSF) were given as i.c.v. (intracerebroventricular) injections. The STZ injections were administered bilaterally on days 1 and 3 of the experimental protocol. […]

Another test concerns the target T2, brain AChE (Rattus norvegicus, UniProt P37136).
T2 construct: from tissue; host or cells: brain homogenate of STZ-treated Wistar rats
T2 sequence (P37136 32-614): T1 sequence (P37136 32-614)
Kind of test: Brain AChE activity in STZ-treated rats (brain homogenate). Format: in vivo. The note with it: STZ i.c.v. rats; PS10 2, 5, 10 mg/kg p.o. The source says:
The central cholinergic system is critical for cognitive function, and AD patients often suffer from cholinergic hypofunction due to increased AChE activity and the degeneration of cholinergic neurons. Animal studies have shown that the administration of STZ (i.c.v) increases brain AChE activity, which leads to cognitive impairment and memory deficits. […]. Possibly, due to these interactions between PS10 and amino acids of AChE, PS10 was able to inhibit AChE activity.
(§1) Groups IV, V, and VI (STZ + PS10): Following intracerebroventricular injections of STZ, animal groups were administered different doses of PS10 (2, 5, and 10 mg/kg, p.o., respectively), from 9 to 22 days.
(§2) After the behavioral experiment was completed, the rats were euthanized under mild anesthesia using cervical dislocation, and their brains were extracted. The homogenates were made in a buffer (pH 7.4) for further analysis. AChE activity, total protein levels, reduced GSH levels, and thiobarbituric acid reactive species (TBARS) levels were measured using the brain homogenates.

The subject of test [4] is brain GSH and TBARS levels. Put plainly: Brain oxidative stress markers (GSH, TBARS) in STZ-treated rats. The note with it: STZ i.c.v. rats; PS10 2, 5, 10 mg/kg p.o. It counts as in vivo, Wistar rats.
Excerpt: Another crucial factor that contributes to the progression of AD is oxidative stress. The brain is more vulnerable to oxidative damage compared to other organs due to its high energy demand, relatively lower level of antioxidant defense mechanisms, and high concentration of polyunsaturated fatty acids. STZ injection generates free radicals that overwhelm the brain’s defensive antioxidant system (GSH) and cause lipid membrane oxidation, leading to the production of malondialdehyde. Thus, in order to analyze the antioxidant property of PS10, the levels of TBARS and GSH were measured in the current investigation (Figure 6).
as §1, §2

Where [5] appears, read: n = 3, rat cortex homogenate, read-out: AChE Inhibitory Activity (IC50, Mean ± SD).

Turning to `N=C(N)NN` [Aminoguanidine (AG), Aminoguanidine, reference compound], in the test on AGE formation, the IC50 stood at 44300 ± 120 nM.

For the compound `O=C1O[C@H]([C@@H](O)CO)C(O)=C1O` [Ascorbic acid, reference compound], the EC50 in test [1] came to 21.7 ± 0.08 nM.

Take `O=C(C=Cc1ccc(O)cc1)c1ccccc1` [PS1, 3-(4-Hydroxyphenyl)-1-phenylprop-2-en-1-one]: the IC50 with AGE formation is 43600 ± 80 nM; in test [2] it was 36.5 ± 0.42 nM. The EC50 in test [1] was determined as 22.4 ± 0.4 nM.

Regarding `CN(C)CCOc1ccc(C=CC(=O)c2ccccc2)cc1` [PS2, 3-(4-(2-(Dimethylamino)ethoxy)phenyl)-1-phenylprop-2-en-1-one], the IC50 in the test on AGE formation worked out at 68600 ± 230 nM; in test [2] (setting [5]), 52.51 ± 0.2 nM. Also, the EC50 in test [1] was 49.85 ± 0.11 nM.

Regarding `CCN(CC)CCOc1ccc(C=CC(=O)c2ccccc2)cc1` [PS3, 3-(4-(2-(Diethylamino)ethoxy)phenyl)-1-phenylprop-2-en-1-one], the IC50 in the test on AGE formation came out at 67300 ± 330 nM; in test [2] (setting [5]), 47.5 ± 0.21 nM. Besides, the EC50 in test [1] is 49.41 ± 0.22 nM.

As to `CN(CCOc1ccc(C=CC(=O)c2ccccc2)cc1)Cc1ccccc1` [PS4, 3-(4-(2-(Benzyl(methyl)amino)ethoxy)phenyl)-1-phenylprop-2-en-1-one], the IC50 in the test with AGE formation was 69390 ± 200 nM; in test [2] (setting [5]) it was 48.8 ± 0.04 nM. In addition, the EC50 in test [1] amounted to 49.48 ± 0.21 nM.

With `O=C(C=Cc1ccc(OCCN2CCCCC2)cc1)c1ccccc1` [PS5, 1-Phenyl-3-(4-(2-(piperidin-1-yl)ethoxy)phenyl)prop-2-en-1-one], the IC50 stood at 55300 ± 200 nM in the test on AGE formation and 19.7 ± 0.3 nM in test [2] (setting [5]). Besides, the EC50 in test [1] amounted to 34.4 ± 0.4 nM.

In the case of `O=C(C=Cc1ccc(OCCN2CCNCC2)cc1)c1ccccc1` [PS6, 1-Phenyl-3-(4-(2-(piperazin-1-yl)ethoxy)phenyl)prop-2-en-1-one], the IC50 in the test with AGE formation stood at 64510 ± 200 nM; in test [2] (setting [5]), 21.4 ± 0.8 nM. Further, the EC50 in test [1] turned out to be 46.7 ± 0.24 nM.

Take `O=C(C=Cc1ccc(OCCN2CCOCC2)cc1)c1ccccc1` [PS7, 3-(4-(2-Morpholinoethoxy)phenyl)-1-phenylprop-2-en-1-one]: the IC50 with AGE formation was 51200 ± 800 nM; in test [2] (setting [5]), 22.72 ± 0.13 nM. Further, the EC50 in test [1] came out at 37.65 ± 0.24 nM.

On to `O=C(C=Cc1ccc(OCCN2CCCC2)cc1)c1ccccc1` [PS8, 1-Phenyl-3-(4-(2-(pyrrolidin-1-yl)ethoxy)phenyl)prop-2-en-1-one], for which the IC50 in the test with AGE formation worked out at 65410 ± 360 nM; in test [2] (setting [5]), 32.72 ± 0.12 nM. For the same compound, the EC50 in test [1] was 48.64 ± 0.18 nM.

For `O=C(C=Cc1ccc(OCCn2ccnc2)cc1)c1ccccc1` [PS9, 3-(4-(2-(1H-Imidazol-1-yl)ethoxy)phenyl)-1-phenylprop-2-en-1-one], the IC50 with AGE formation was determined as 65700 ± 170 nM; in test [2] (setting [5]) it was 26.3 ± 0.3 nM. The EC50 in test [1] was determined as 48.58 ± 0.42 nM.

In the case of `CN1CCN(CCOc2ccc(C=CC(=O)c3ccccc3)cc2)CC1` [PS10, 3-(4-(2-(p-Methylpiperazin-1-yl)ethoxy)phenyl)-1-phenylprop-2-en-1-one], in test [3], the “ELT (escape latency time) in MWM” value was “significantly decreased STZ-induced cognitive impairment” and the “TSTQ (time spent in target quadrant) in MWM” value is “significantly decreased STZ-induced cognitive impairment”. Also, at brain AChE, the “brain AChE activity” value is recorded as “restored”. For the same compound, in test [4], the “brain GSH level” value is “reversed” and the “brain TBARS levels” value was “reversed”. Besides, the IC50 with AGE formation is 49850 ± 130 nM. In addition, the IC50 in test [2] (setting [5]) came out at 15.3 ± 0.72 nM. In addition, in test [1], the EC50 stood at 22.83 ± 0.2 nM.

For the origin of these results see publication PMC10534526 (Molecules, 2023).
